From ChEMBL document CHEMBL5291721, “A preclinical secondary pharmacology resource illuminates target-adverse drug reaction associations of marketed drugs” (Nat Commun, 2023)

Experiments:
[1] = biological target: T1, Type-2 angiotensin II receptor (Homo sapiens, UniProt P50052); assay type: functional; note: assay procedure not described here
T1 sequence (P50052 whole entry): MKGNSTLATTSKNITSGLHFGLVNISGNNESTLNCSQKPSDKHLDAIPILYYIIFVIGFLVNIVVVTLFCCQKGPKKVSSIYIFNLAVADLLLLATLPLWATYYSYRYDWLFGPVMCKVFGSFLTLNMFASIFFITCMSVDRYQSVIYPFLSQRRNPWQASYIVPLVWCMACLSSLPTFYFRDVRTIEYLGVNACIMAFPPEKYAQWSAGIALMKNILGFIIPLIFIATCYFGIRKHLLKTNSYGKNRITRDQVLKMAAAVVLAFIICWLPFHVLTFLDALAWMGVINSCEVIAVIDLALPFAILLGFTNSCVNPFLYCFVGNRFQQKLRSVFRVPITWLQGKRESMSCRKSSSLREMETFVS

Melanocortin receptor 3 = Melanocortin receptor 3 (Homo sapiens, UniProt P41968)
Melanocortin receptor 3, sequence (P41968 whole entry): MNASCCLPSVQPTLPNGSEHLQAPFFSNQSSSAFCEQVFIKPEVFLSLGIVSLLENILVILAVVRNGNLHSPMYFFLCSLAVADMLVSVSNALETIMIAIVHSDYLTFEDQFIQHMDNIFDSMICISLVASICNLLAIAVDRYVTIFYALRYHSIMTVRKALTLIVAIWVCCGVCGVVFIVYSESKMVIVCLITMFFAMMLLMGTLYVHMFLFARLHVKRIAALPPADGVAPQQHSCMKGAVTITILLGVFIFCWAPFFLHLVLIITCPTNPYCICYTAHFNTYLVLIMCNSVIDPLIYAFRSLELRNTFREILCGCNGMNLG

AC50 [1] [µM] | Structure (SMILES) | AC50 (Melanocortin receptor 3) [µM]
> 100 | O=C1CN2Cc3c(ccc(Cl)c3Cl)N=C2N1 [ANAGRELIDE] | 
> 100 | Clc1cccc(Cl)c1N=C1NCCN1 [CLONIDINE] | 
 | CC1(C)O[C@@H]2[C@@H](CO[C@@]3(COS(N)(=O)=O)OC(C)(C)O[C@@H]23)O1 [TOPIRAMATE] | > 30
